How the values were obtained:
Type in all cases: in vivo
[1] = test system: matrix metalloproteinase 9 (MMP-9); test: Test for suppression of blood-brain barrier disruption (western blotting, MMP-9 antibody) in vascular dementia disease model mouse; details: BCAS model mouse; 100 μmol/kg oral or intraperitoneal, three times/week; hippocampus and striatal tissue, 7 days after the surgery; FIG. 2
Source text: (§1) Firstly, according to a general preparation method for vascular dementia disease model mouse (for example, Shibata M, Ohtani R, Ihara M, et al., Stroke 35: 2598-2603, 2004; or Ihara M, Taguchi A, Maki T, et al., Methods Mol Biol 1135: 95-102, 2014), the mouse was equipped with a 0.18 mm microcoil into a right common carotid artery of the mice and a 0.16 mm microcoil into a left common carotid artery thereof.
Next, a vascular dementia disease model mouse (hereinafter sometimes referred to as Bilateral common artery stenosis (BCAS) model) was prepared according to the below-mentioned schedule as shown in FIG. 1. […]
The vascular dementia disease model mouse which was prepared in the Test Example 1 was euthanized on 7 days after the surgery. […] The homogenate was crushed with ultrasonic while cooling on ice, and after centrifuging, the supernatant was subjected to a protein quantification by a bicinchoninic acid (BCA) method. Thereafter, the prepared protein sample was evaluated on an effect on suppression of blood-brain barrier disruption according to a western blotting method using antibody against matrix metalloproteinase 9 (MMP-9) similarly to a generally known method. […]

[2] = test system: myelin basic protein (MBP); test: Test for suppression against reduction of a myelin basic protein (MBP), brain section immunostaining in vascular dementia disease model mouse; details: BCAS model mouse; 100 μmol/kg oral or intraperitoneal, three times/week; brain frozen section, 28 days after the surgery; FIG. 3
Source text: as §1
(§2) Next, a vascular dementia disease model mouse (hereinafter sometimes referred to as Bilateral common artery stenosis (BCAS) model) was prepared according to the below-mentioned schedule as shown in FIG. 1.
Ethoxyquin or methyldopa were administered by an oral administration or an intraperitoneal administration in a dose of 100 μmol/kg by a ratio of three times/week until the completion of the test (for example, for 1 to 4 weeks). Here the test results in the case where a healthy mouse as control was used is shown.
The vascular dementia disease model mouse which was prepared in the Test Example 1 was euthanized on 28 days after the surgery. The frozen section of the brain of the mice (N (number of animal)=6 to 8 animals) were immobilized in cold acetone for 10 minutes, and washed with PBS for 5 minutes (× three times). […]

[3] = test system: vascular dementia disease model mouse (BCAS model); test: Novel object recognition test in vascular dementia disease model mouse; details: 100 μmol/kg oral or intraperitoneal, three times/week, FIG. 4
Source text: as §1, §2
Ethoxyquin or methyldopa were administered by an oral administration or an intraperitoneal administration in a dose of 100 μmol/kg by a ratio of three times/week until the completion of the test (for example, for 1 to 4 weeks). […]
A novel object recognition test was conducted by utilizing rodent's character of seeking novelty. […] After a certain times were passed, one of the object was changed by a novel object, and the animals were placed in the same observation box again, and the time exploring an object was measured for 10 minutes (Test trial). The time exploring a novel object or the time exploring the learned object were defined as “N” or “F” respectively, and were calculated by the following equation: the Exploration time=N+F, and the Discrimination Index=(N−F)/(N+F). […]

[4] = test system: vascular dementia disease model mouse (BCAS model); test: Test for influence on cerebral blood flow (Laser-Doppler blood flow meter) in vascular dementia disease model mice; details: 50, 75 or 100 μmol/kg oral or intraperitoneal, three times/week, measured up to 14 days after surgery, FIG. 5
Source text: as §1, §2
In the vascular dementia disease model mice (N (number of animals)=6 to 8 animals) that were prepared in the Test Example 1, a cerebral blood flow of a boundary region (blegma) between middle cerebral artery and anterior cerebral artery was measured at immediately before ischemic surgery, immediately after ischemic surgery, after 1 day, after 4 days, after 7 days or after 14 days. A Laser-Doppler blood flow meter was fixed on a skull, and a cerebral blood flow was measured, and the cerebral blood flow was evaluated as a ratio thereof to cerebral blood flow immediately before ischemic surgery. […]

Row | Compound | effect on suppressing a blood-brain barrier disruption (MMP-9 western blotting) [1] | effect on suppression of the reduction of myelin basic protein [2] | novel object recognition (cognitive dysfunction, long-term spatial memory; Discrimination Index) [3] | influence on cerebral blood flow (ratio to flow immediately before ischemic surgery) [4]
1 | CCOc1ccc2c(c1)C(C)=CC(C)(C)N2 [Compound 1, 6-Ethoxy-2,2,4-trimethyl-1,2-dihydroquinoline] | suggested an effect on suppressing a blood-brain barrier disruption | suggested an effect on a suppression of the reduction of myelin basic protein | showed an improved cognitive dysfunction in a long-term spatial memory | do not affect any cerebral blood flow
2 | C[C@](N)(Cc1ccc(O)c(O)c1)C(=O)O [Compound 2, Methyldopa sesquihydrates] | suggested an effect on suppressing a blood-brain barrier disruption | suggested an effect on a suppression of the reduction of myelin basic protein | showed an improved cognitive dysfunction in a long-term spatial memory | do not affect any cerebral blood flow

From patent publication US12678431B2, “Pharmaceutical composition for treatment of dementia and cerebrovascular disorders” (FUSO PHARMACEUTICAL INDUSTRIES, LTD., priority 2019, dated 2026)
